The record followed here is patent publication US20260034042A1, “Composition with Improved SPF and UVA Photoprotection” (Symrise AG, priority 2022, published 2026).

What all share (format): physicochemical
Data set [1] can be described thus: Determination of the in-vitro SPF on PMMA plates (Labsphere UV-200S, Colipa method). The method, then:
(§1) Determination of the in-vitro SPFs and UVA-PF
(§2) The SPF boosting and UVA-PF boosting test is carried out as in-vitro determination of SPFs.
(§3) Principle: The formulation to be tested (emulsion, solution) is weighed on PMMA plates with the help of an analytical balance. The formulation if distributed and incorporated on the plate using a method corresponding to the formulation. The thus prepared plates are then measured on a Labsphere device and the results are calculated as SPF with a suitable software.
(§4) PMMA plates (Polymethylmethacrylate), measuring 3 cm×8.5 cm (WVVW5 plates based on […] “Determination of UVA photoprotection in vitro” with 5μ roughness by Schonberg GmbH & Co. AG) are used to perform an SPF measurement.
(§5) A reference sample is obtained by distributing 25 to 28 mg glycerin (99.5%) with the index finger on the roughened side of the PMMA plate. The glycerin film must be very thin and uniform. Subsequently, this plate is stored for at least 2 hours.
(§6) The reference plate is measured with the following transmission values:
(§7) The sample to be measured should be homogeneously mixed with a spatula before application. 1.2 mg/cm2 of sample is evenly distributed in several rows of dots on the PMMA plate. In order to minimise the evaporation of the sample during weighing, this process must be carried out quickly. The sample is then evenly distributed by hand with a finger previously saturated with the sample material. The distribution takes place in two phases: • Phase 1: Fast and uniform distribution with a slight pressure until the emulsion is broken. • Phase 2: The sample is massaged into the rough surface with strong pressure and the process should last 30 seconds. In this context under strong pressure means that when massaged on a scale, this indicates at least […].
(§8) Sun oils: The product quantity is generally 1.3 mg/cm^2. For strongly spreading oils, less product is applied, as the amount of oil cannot be “absorbed” from the plate. Then the amount of application should be reduced to 1.0-0.75 mg/cm^2. Application method here is also the 30 s fast/light and 30 s strong method. • Sun sprays: The “30/30 method” applies here (especially for thicker sprays). • For very liquid sprays (similar to water): • Fast and uniform distribution with a slight pressure, until the emulsion “breaks”. • The process should take 45 s.
(§9) The finished sample plates are stored dust-free and measured at the earliest after 15 minutes.
(§10) The samples are measured using the UV-200S device, using the specified Colipa method. The Labsphere user manual also applies.
(§11) A new “Study” is opened via File and then the “Colipa Guideline 2011” method is selected under the heading “Study”. In the new window “Colipa Method Options” the number of plates (3 plates), the measuring points per plate (5 measuring points) and the in vivo SPF and, if necessary, the irradiance intensity of the external irradiance device (Solar Simulator Irradiance) entered. • The irradiance set on the external device is 765 W/m2 as standard. The complete naming of the sample is done via Study”, “Study Information”.
At the beginning of the measurement, a blank value of the glycerin reference sample is measured (“scan blank plate”). In order to determine the SPF of a sample, a total of 15 measuring points (3 plates of 5 measuring points) are then created (“Scan Location”).
• After the first measurement run, the device calculates an irradiation dose (Irradiation Dose/J/cm2) and the duration (exposure time) for each plate. The plates are irradiated in the external irradiation device (irradiation duration=average value of the 3 plates).
The calculation of irradiation dose and exposure time is based on the irradiance (765 W/m^2) set on the external device. […]

Data set [2] in a line: Determination of the in-vitro UVA-PF on PMMA plates (Labsphere UV-200S, Colipa method, post irradiation). The method, then:
UVA-photoprotection is expressed in UVA-protection factor (UVA-PF). UVA-PF is similar to SPF in that it is a measure of how well a sunscreen protects the skin from UVA radiation. It is performed in a similar manner by irradiating the skin with UVA. This can be done in vivo with human skin or in vitro, where it is performed by applying the sunscreen to an PMMA plate (Polymethymethacrylate plate) and measuring how much UVA passes through the slide with or without the sunscreen. To characterize protection from UVA radiation, the PPD (Persistent Pigment Darkening) method, which measures the color of the skin observed 2 to 4 hours after exposure of the skin to UVA radiation, is used. The PPD method appears to correlate well with the in vitro UVA-PF testing.
as §1, §2, §3, §4, §5, §6, §7, §8, §9, §10, §11
(§12) At the beginning of the measurement, a blank value of the glycerin reference sample is measured (“scan blank plate”). […]

Data set [3] can be described thus: Critical wavelength of the sunscreen formulation (post irradiation).
From the text: The term “broad-spectrum photo-protection” means photo-protection from both UVA and UVB radiation. Broad-spectrum is based on the breadth of protection offered by a sunscreen in the UVA and UVB spectrums. In order for a sunscreen to be considered broad-spectrum, it must have achieved a critical wavelength of at least 370 nm, meaning that 10% of the protection that the sunscreen offers has to be for wavelengths above 370 nm. A critical wavelength>370 nm is a rigorous minimum that sunscreen products should achieve to be labelled as broad-spectrum”.
The term “critical wavelength” is defined as the wavelength at which the area under the UV protection curve (% protection versus wavelength) represents 90% of the total area under the curve in the UV region (280-400 nm). […]
In order to calculate the critical wavelength (λc), mathematical integration of the measured spectral absorbance from […] to 400 nm is performed to calculate the area beneath the absorbance curve. The critical wavelength value is based upon the inherent shape and breadth of the absorbance cure, not its amplitude. The critical wavelength is the wavelength below which 90% of the area under the absorbance curve sides. […]
The samples are measured using the UV-200S device, using the specified Colipa method. […]
as §12

The mark [4] stands for this setting: 1.0% by weight added to sunscreen with modern organic UV-filter mixture (Example 1; control SPF 31.7).
Where [5] appears, read: 1.0% by weight, classic organic UV-filter combination (Example 3).
Setting [6] is: 1.0% by weight, classic organic UV-filter combination (Example 3; control SPF 33.7).
Where [7] appears, read: 1.0% by weight, modern organic UV-filter mixture (Example 1).
Setting [8] is: 3.0% by weight added to sunscreen with modern organic UV-filter mixture (Example 1; control SPF 31.7).
Setting [9] is: 3.0% by weight, classic organic UV-filter combination (Example 3).
[10] abbreviates: 3.0% by weight, classic organic UV-filter combination (Example 3; control SPF 33.7).
[11] abbreviates: 3.0% by weight, modern organic UV-filter mixture (Example 1).
Setting [12] is: 3.0%, modern organic UV-filter mixture (Example 1).

For the compound `CCOC(=O)CNC1=C/C(=N/c2ccccc2)CC(C)(C)C1` [MAA-1, ethyl 2-[[5,5-dimethyl-3-phenylimino-cyclohexen-1-yl]amino]acetate], the “in vitro SPF” value in data set [1] (setting [4]) turned out to be 53.4; in data set [1] (setting [6]), 35.4; in data set [1] (setting [8]), 86.1; in data set [1] (setting [10]) it was 54.4. Also, the “in vitro SPF higher than reference sample without MAA” value in data set [1] (setting [5]) worked out at 5.0%; in data set [1] (setting [7]), 68.5%; in data set [1] (setting [9]) it was 61.4%; in data set [1] (setting [11]), 171.6%. Besides, the “improvement of the UVA-PF compared to the control sample” value in data set [2] (setting [12]) is reported as 9.35%.
Consider `COc1ccc(/N=C2\CC(C)(C)CC3=C2SCC(C(=O)O)N3)cc1OC` (centres unmarked) [MAA-13, 8-((3,4-dimethoyxphenyl)imino)-6,6-dimethyl-3,4,5,6,7,8-hexahydro-2-H-benzol[b][1,4]thiazine-3-carboxylic acid], for which the “in vitro SPF” value in data set [1] (setting [4]) is reported as 34.4; in data set [1] (setting [6]), 36.3; in data set [1] (setting [8]) it was 39.8; in data set [1] (setting [10]), 63.1. For the same compound, the “in vitro SPF higher than reference sample without MAA” value in data set [1] (setting [5]) is recorded as 7.7%; in data set [1] (setting [7]), 8.52%; in data set [1] (setting [9]), 87.2%; in data set [1] (setting [11]), 25.6%. The critical wavelength in data set [3] (1.0% and 3.0%, classic sunscreen composition (Example 3; without MAA 380 nm)) is on record as 381 nm; in data set [3] (3.0%, modern sunscreen composition (Example 1; without MAA 378 nm)), 379 nm. Moreover, the “improvement of the UVA-PF compared to the control sample” value in data set [2] (1.0%, classic organic UV-filter combination (Example 3)) is recorded as 3.2%; in data set [2] (1.0%, modern organic UV-filter mixture (Example 1)), 14.8%; in data set [2] (3.0%, classic organic UV-filter combination (Example 3)) it was 5.2%; in data set [2] (setting [12]) it was 30.75%.
As for `CC1(C)CC(NCC(=O)O)=C/C(=N/c2ccccc2)C1` [MAA-20, 2-[(5,5-dimethyl-3-phenylimino-cyclohexen-1-yl)amino]acetic acid], the “in vitro SPF higher than control/reference sample without MAA” value in data set [1] (1.0% by weight, modern organic UV-filter mixture of Example 2) is listed as 9%. In addition, in data set [1] (1.0% by weight, modern organic UV-filter mixture of Example 2 (control SPF 52.4)), the “in vitro SPF” value was determined as 57.1. In addition, the “improvement of the UVA-PF compared to the control sample” value in data set [2] (1.0%, modern organic UV-filter mixture of Example 2) is recorded as 18.2%.
